# Measured values taken from patent US8691864B2, “Agents useful for reducing amyloid precursor protein and treating dementia and methods of use thereof” (priority 2000, dated 2014).
# Key:
# APP = test: rate of APP synthesis in SH-SY5Y cells (35S labelling, immunoprecipitation); format: cell-based, human; conditions: 10 μM, 16 hours
# Method: 8×10^6 SHSY-5Y cells were plated on 100 mm dishes with DMEM containing 10% FBS. After 36 hours, the culture medium was replaced with DMEM containing 0.5% FBS. The cells were incubated with low serum medium for 1 hour. Thereafter, the medium was replaced with fresh low serum medium with and without 10 μM of phenserine for 16 hours.
# After treatment with methionine and cystine free medium, 2 ml of ^35S-labeled DMEM ([…]) with and without phenserine (10 μM) were added and incubated for 10 minutes. Thereafter, the labeled medium was carefully removed and the cells were suspended in lysis buffer containing with protease inhibitors and frozen at −80° C. for use in the immunoprecipitation assay.
# APP protein was immunoprecipitated from 300 μig of total protein in each sample using the polyclonal antibody O443, which recognizes a 20 amino acid sequence in the carboxy terminal of APP, and protein A/G resin overnight at 4° C. Immunoprecipitated APP was eluted from the protein AJG resin with 30 μl of elution buffer (10% beta-mercaptoethanol). The samples were loaded onto 10% trys-glycine 10 gels, and the proteins were separated at 150 V for 90 min. The gels were fixed and dried at 80° C. for 60 min. The dried gels were exposed to Phosphor Screen (PACKARD Instrument Company, Inc., Meriden, Conn.) overnight and the βAPP signals were quantitated on a phosphor imager. […]
# APP-mRNA 5′UTR = test: CAT reporter assay with βAPP-mRNA 5′UTR in transfected U373 MG cells; format: cell-based
# Method: One day prior to transfection, U373 cells were plated onto 100 mm dishes at a density of 3×10^5 cells. On the day of transfection, the cells were given 5 ml of fresh media containing 10% FBS, 2 mM glutamine in DMEM. The cells were transfected using a calcium phosphate precipitation method, as per the manufacturer's protocol and described previously (Rogers et al., 1999). Briefly, for each plate, three μg of DNA (5′UTR APP-PSV2-CAT or PSV2-CAT vector) were placed in a final volume of […] of 250 mM CaCl2. The chloramphenicol acetyl transferase (CAT) gene was used as a reporter gene. The DNA solution was slowly pipetted into an aerated, equivalent volume of 2×HeBS, pH 7.05. The resulting precipitate was allowed to stand 10-20 min at RT before its addition to the cells. After 18 h, the medium was changed and the transfected cells were left for two days before drug treatment.
# The cell lysates from transfected U373 cells treated with phenserine were analyzed for their CAT activity using a colorimetric enzyme immunoassay (Boehringer Mannheim, Indianapolis, Ind.). Briefly, 50 μg of protein (an amount previously found to lie within the linear range of the assay) were placed onto anti-CAT coated microtiter plate modules and allowed to bind for 1 h at 37° C. The plates were washed thoroughly after each step. Next, a digoxigenin-labeled anti-CAT antibody was added to the samples and incubated for 1 h at 37° C. A subsequent antibody, anti-digoxigenin conjugated to peroxidase, was placed in the wells for another hour under similar conditions. Finally peroxidase substrate, ABTS, was added to each well and the absorbance of each sample was measured at a wavelength of 405 nm.
# The plasmid PSV2-APP-CatD was provided by Dr. Rogers (1999). […]
# Quantitation of the fold stimulus of CAT gene activity conferred by the 5′ UTR βAPP-mRNA was measured. ELISA readings of CAT expression were measured at 405 nm. […] In other assays where the time of treatment was extended to 48 hours, only a 2-fold decrease in CAT reporter mRNA was detected with phenserine treatment.
# βAPP = βAPP levels in brain cortex and CSF of transgenic mice; format: in vivo; conditions: 2.5 mg/kg i.p., once daily for 3 weeks
# total Aβ peptide = test: total Aβ ELISA in SK-N-SH conditioned medium; format: cell-based, human; conditions: 50 μM
# Method: Total Aβ peptide levels in SH-SY-SY and SK-N-SH cultured samples were assayed by a sensitive ELISA (Suzuki et al., 1994). For total Aβ measurements in conditioned medium, the rabbit polyclonal antibody #3160 (1-40 residues of Aβ) was used as a capture antibody for all species of Aβ peptide (Aβ1-40 and Aβ1-42) while monoclonal antibody 4G8 (17-25 residues of Aβ) was used to detect Aβ peptide levels, and the values were expressed as the mean of six independent assays.
# Likewise, (+)-phenserine reduced BAPP protein levels and total Aβ peptide levels at 16 hours (FIG. 5).
smiles,measurement,setting,value
CN1CC[C@@]2(C)c3cc(OC(=O)Nc4ccccc4)ccc3N(C)[C@@H]12 [(−)-phenserine],reduction of βAPP synthesis,APP,52%
same,CAT activity in pSV2 CAT (parental vector) transfected cells,"APP-mRNA 5′UTR; control vector, all time points",no inhibition
same,decrease of CAT gene activity conferred by the 5′ UTR βAPP-mRNA,"APP-mRNA 5′UTR; pSV2 (APP) CAT transfected U373, 50 μM, 1 hour",4 fold
same,decrease in CAT activity,"APP-mRNA 5′UTR; pSV2 (APP) CAT transfected U373, treatment extended to 48 hours",2 fold
same,reduction of βAPP levels in CSF,βAPP,55%
same,reduction of total Aβ versus untreated controls,total Aβ peptide; 8 hours,14%
same,reduction of total Aβ versus untreated controls,total Aβ peptide; 16 hours,31%
